Source: patent US11179342B2, “Peptide coacervates and methods of use thereof” (NANYANG TECHNOLOGICAL UNIVERSITY, priority 2018, dated 2021)
Residues, ends and D or L forms follow the SMILES beside them.

How the values were obtained:
[1] = Encapsulation of Dox and MNPs by coacervates; format: physicochemical; details: DgHBP-2-peptide coacervates
Procedure: Dox (Final concentration: 0.04 mg mL^−1) and MNPs (Final concentration: 0.008% v/v) were first added to phosphate buffer (pH 9.5 0.1M) to their final concentrations. DgHBP-2 peptide stock solution (10 mg mL^−1) was successively added to the buffer/drug mixture in a 1:9 ratio to trigger encapsulation and coacervation. Gentle pipetting was then done to mix the final mixture.

[2] = cited from earlier work
NIH3T3 mouse fibroblasts = test: MTT assay; format: cell-based
Procedure: NIH3T3 mouse fibroblasts were used to estimate the cytotoxicity of DgHBP-2 peptide and coacervates. The fibroblasts were cultivated using Dulbecco's modified eagle medium supplemented with 10% of fetal bovine serum, 100 units/mL of penicillin and 100 μg/mL of streptomycin in a 37° C. incubator with 5% CO2. 100 μL of cells with a cell density of 1×10^4 cells/mL were seeded onto a 96-well plate (Thermo Fisher Scientific). After 24 hours, the cell culture media was substituted with 100 μL of fresh media containing different concentration of peptide or insulin-loaded coacervates. After another 24 hours, 10 μL of MTT solution (concentration: 5 mg/mL) was added into each well. Cell culture media and the excess MTT was then removed after 4 hours of incubation. 100 μL of DMSO was subsequently added into each well to dissolve the formazan crystals. The dissolved crystals were then measured at 570 nm on a 96-well microplate reader (Infinity M200, Tecan). Relative cell viability is calculated as:
[formula] where At, Ac, and Ab represent absorbance values of wells containing tested cells, control cells and DMSO, respectively. In Vitro Release Assay (Timepoint Assay)

| encapsulation efficiency of Dox [1] [%] | unencapsulated Dox [1] [%] | SMILES | pKa [2] | cytotoxicity (NIH3T3 mouse fibroblasts) |
| --- | --- | --- | --- | --- |
| ~40 | 60 | COc1cccc2c1C(=O)c1c(O)c3c(c(O)c1C2=O)C[C@@](O)(C(=O)CO)C[C@@H]3O[C@H]1C[C@H](N)[C@H](O)[C@H](C)O1 [Dox, Doxorubicin] | ~8.46 | – |
| – | – | CC(C)C[C@H](NC(=O)CNC(=O)[C@H](Cc1c[nH]cn1)NC(=O)CNC(=O)[C@H](Cc1ccc(O)cc1)NC(=O)[C@@H]1CCCN1C(=O)CNC(=O)[C@H](Cc1c[nH]cn1)NC(=O)CNC(=O)[C@H](Cc1ccc(O)cc1)NC(=O)[C@@H]1CCCN1C(=O)CNC(=O)[C@H](Cc1c[nH]cn1)NC(=O)CNC(=O)[C@H](Cc1ccc(O)cc1)NC(=O)[C@@H](NC(=O)CNC(=O)[C@H](Cc1c[nH]cn1)NC(=O)CNC(=O)[C@H](Cc1ccc(O)cc1)NC(=O)[C@@H](NC(=O)CNC(=O)[C@H](Cc1c[nH]cn1)NC(=O)CN)C(C)C)C(C)C)C(=O)N[C@@H](Cc1ccc(O)cc1)C(=O)N[C@@H](Cc1c[nH]c2ccccc12)C(=O)O [DgHBP-2 peptide, GHGVYGHGVYGHGPYGHGPYGHGLYW] (H-GHGVYGHGVYGHGPYGHGPYGHGLYW-OH) | – | negligible |
